The subject of assay [1] is A2780. Put plainly: Inhibition of PBS-induced autophagy in human A2780 cells assessed as decrease in LC3-2 level at 50 to 100 uM preincubated for 1 hr followed by PBS induction measured after 3 hrs by Western blot analysis. The class given is functional, cell-based. A general note: Immunoblotting shows a protein as a band on a membrane.
The subject of assay [2] is A2780. Put plainly: Inhibition of PBS-induced autophagy in human A2780 cells assessed as decrease in depletion of p62 level at 50 to 100 uM preincubated for 1 hr followed by PBS induction measured after 3 hrs by Western blot analysis. The class given is functional, cell-based.
For assay [3], the system named is MCF7. Put plainly: Inhibition of chloroquine-induced autophagy in human MCF7 cells assessed as suppression of autophagosome formation at 25 uM after 5 hrs by MDC staining-based fluorescence microscopic analysis. Type of assay: functional, cell-based.
Assay [4] in a line: Cytotoxicity against human NCI60 cells assessed as cell growth at 10 uM after 24 hrs by SRB assay relative to control. Type of assay: functional. The conditions noted are these: NCI60, 24 h, read-out: Activity. In general terms: The SRB assay estimates cell density from bound dye.
Assay [5] relates to A2780. The assay can be described thus: Inhibition of PBS-induced autophagy in human A2780 cells assessed as decrease in LC3-2 level preincubated for 1 hr followed by PBS induction measured after 3 hrs by Western blot analysis. Type of assay: functional, cell-based.
The test system of assay [6] is A2780. Put plainly: Inhibition of PBS-induced autophagy in human A2780 cells assessed as decrease in depletion of p62 level preincubated for 1 hr followed by PBS induction measured after 3 hrs by Western blot analysis. The class given is functional, cell-based.

The source made the active and inactive calls. No cut-off for these calls is given here.

For `O=C(NC1CCN(Cc2ccccc2)CC1)c1ccc(Cl)cc1Cl`, the inhibition entry in assay [1] and in assay [2] was “inactive” in each case.

Consider `O=C(NCCCCc1ccccc1)c1cccc(Br)c1`, for which the inhibition entry in assay [1] and in assay [2] was “inactive” in each case.

On to `O=C(NCCCCc1ccccc1)c1ccccc1F`, for which the inhibition result in assay [1] and in assay [2] was “Active” in each case.

In the case of `Cc1cccc(CS(=O)(=O)NCc2ccc(N3CCCC3)cc2)c1`, the inhibition entry in assay [1], in assay [2] and in assay [3] was “Active” in each case. Further, the growth at 10 µM in assay [4] amounted to 90.1%.

For the molecule `O=C(NCCCOc1ccccc1)c1cccc2ccccc12`, the inhibition entry in assay [1], in assay [2] and in assay [3] was “Active” throughout.

As for `O=C(NCCCc1ccccc1)c1ccccc1`, the inhibition entry in assay [1] and in assay [2] was “inactive” in each case.

`O=C(CNC(=O)c1ccc(Cl)cc1Cl)OCC(=O)c1ccc(Br)cc1`: the inhibition result in assay [1] and in assay [2] was “inactive” throughout.

Regarding `O=C(NCCCCc1ccccc1)c1ccc(Cl)cc1Cl`, the inhibition result in assay [5] and in assay [6] was “Dose-dependent effect” each time. Also, in assay [3], the inhibition entry is “Active”.

Consider `COc1ccc(NC(=O)C(=O)NCCN2CCN(C(=O)c3ccc(Cl)cc3Cl)CC2)cc1`, for which the inhibition result in assay [1] and in assay [2] was “inactive” throughout.

As to `O=C(NCCCCc1ccccc1)c1ccccc1Br`, the inhibition result in assay [1] and in assay [2] was “inactive” in each case.

For `Cc1ccc(OCC(=O)Nc2ccc(N3CCN(C(=O)c4ccco4)CC3)cc2)cc1`, the inhibition entry in assay [1] and in assay [2] was “Active” each time.

`O=C(NCCCCc1ccccc1)c1ccc(Br)cc1`: the inhibition result in assay [1] and in assay [2] was “inactive” each time.

Source of the values: ChEMBL document CHEMBL3621118, “Virtual screening for novel Atg5Atg16 complex inhibitors for autophagy modulation” (2015).
